The record followed here is patent US4058624A, “Broad spectrum antibacterial compositions containing tris (hydroxymethyl)-aminomethane and diphenyl and loweralkyl substituted diphenyl polyamines” (Merck & Co., Inc., priority 1976, dated 1977).

The nature of this data set: Acute toxicity, oral LD50 mice (Table I). As to conditions: mouse, in vivo. The text has this: The low toxicity of these compounds makes them especially attractive for use where contact with skin surfaces or possible ingestion renders the use of irritating or toxic materials inadvisable.
As for `CC(C)(C)c1ccc(CCCC(CCCc2ccc(C(C)(C)C)cc2)NCCCNCCCNCCCN)cc1.Cl.Cl.Cl.Cl` [1-[1,7-bis-(4-t-butylphenyl)-4-heptyl]-1,5,9,13-tetrazatridecane tetrahydrochloride], the LD50 is 1550 mg/kg. With `Cc1ccc(C(C)(C)C)cc1CCCC(CCCc1cc(C(C)(C)C)ccc1C)NCCNCCNCCN.Cl.Cl.Cl.Cl` [1-[1,7-di-(2-methyl-5-t-butylphenyl)-4-heptyl]-1,4,7,10-tetrazadecane tetrahydrochloride], the LD50 worked out at 2070 mg/kg. In the case of `Cc1ccc(C(C)(C)C)cc1CCCC(CCCc1cc(C(C)(C)C)ccc1C)NCCCNCCCN.Cl.Cl.Cl` [1-[1,7-di-(2-methyl-5-t-butylphenyl)-4-heptyl]-1,5,9-triazanonane trihydrochloride], the median lethal dose (LD50) worked out at 1650 mg/kg. The figure for `Cc1cc(C)c(CCC(CCc2c(C)cc(C)cc2C)NCCCNCCCN)c(C)c1.Cl.Cl.Cl` [1-[1,5-di-(2,4,6-trimethylphenyl)-3-pentyl]-1,5,9-triazanonane trihydrochloride] is 1150 mg/kg.

The LD50 is the dose at which mortality reaches 50%. Read a low LD50 as a more toxic substance.
